Activity calls are given as the source filed them. No cut-off for these calls is given here.
Assays:
[1] = tested on: HT-1080; experiment: Growth inhibition of human HT1080 cells at 2.5 uM after 72 hrs by SRB assay relative to control; format: functional; settings: HT-1080, 72 h, read-out: GI
[2] = tested on: U-87 MG; experiment: Growth inhibition of human U87MG cells at 2.5 uM after 72 hrs by SRB assay relative to control; format: functional, U-87MG ATCC; settings: read-out: GI
[3] = tested on: U2OS; experiment: Growth inhibition of human U2OS cells at 2.5 uM after 72 hrs by SRB assay relative to control; format: functional; settings: read-out: GI
[4] = tested on: HT-1080; experiment: Anti-invasive activity against human HT1080 cells at 2.5 uM incubated for 24 hrs measured for 24 hrs by crystal violet staining based inverted microscopic method relative to control; format: functional
[5] = tested on: HT-1080; experiment: Effect on growth factor mRNA expression in human HT1080 cells assessed as FGF1 mRNA level at 2.5 uM after 24 hrs by qPCR method (reference value: 100%); format: functional
[6] = tested on: HT-1080; experiment: Effect on growth factor mRNA expression in human HT1080 cells assessed as FGF2 mRNA level at 2.5 uM after 24 hrs by qPCR method (reference value: 100%); format: functional
[7] = tested on: HT-1080; experiment: Effect on growth factor mRNA expression in human HT1080 cells assessed as VEGF mRNA level at 2.5 uM after 24 hrs by qPCR method (reference value: 100%); format: functional
[8] = tested on: HT-1080; experiment: Effect on MMP9 mRNA expression in human HT1080 cells assessed as MMP9 mRNA level at 2.5 uM after 24 hrs by qPCR method (reference value: 100%); format: functional
[9] = tested on: HT-1080; experiment: Effect on HPSE1 mRNA expression in human HT1080 cells assessed as HPSE1 mRNA level at 2.5 uM after 24 hrs by qPCR method (reference value: 100%); format: functional
[10] = tested on: HT-1080; settings: Homo sapiens, 2.5 uM
Description: Inhibition of cell adhesion in human HT1080 cells at 2.5 uM incubated for 18 to 20 hrs by crystal violet staining based assay

[11] = target: T1, Heparanase (Mus musculus, UniProt Q6YGZ1); experiment: Inhibition of mouse B16-BL6 cells derived heparanase using [3H]HS as substrate after 6 hrs by size exclusion chromatography based liquid scintillation counting method
T1 sequence (Q6YGZ1 whole entry): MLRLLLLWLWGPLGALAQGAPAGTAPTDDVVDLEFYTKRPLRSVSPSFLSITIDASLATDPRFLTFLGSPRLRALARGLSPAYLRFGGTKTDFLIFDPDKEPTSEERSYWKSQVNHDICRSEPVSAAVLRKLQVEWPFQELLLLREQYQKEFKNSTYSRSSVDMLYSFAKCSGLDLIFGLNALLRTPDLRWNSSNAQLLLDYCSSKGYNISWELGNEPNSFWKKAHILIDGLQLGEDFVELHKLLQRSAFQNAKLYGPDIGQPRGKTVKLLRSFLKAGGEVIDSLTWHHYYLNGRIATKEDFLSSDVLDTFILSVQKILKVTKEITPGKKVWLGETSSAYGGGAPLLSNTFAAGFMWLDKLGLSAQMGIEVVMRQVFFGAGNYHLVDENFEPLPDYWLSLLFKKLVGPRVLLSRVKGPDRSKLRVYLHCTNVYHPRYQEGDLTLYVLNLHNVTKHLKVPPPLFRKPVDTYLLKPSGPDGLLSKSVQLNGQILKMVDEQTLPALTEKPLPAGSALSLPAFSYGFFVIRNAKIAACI

Compound | inhibition of growth at 2.5 µM [1] | inhibition of growth at 2.5 µM [2] | inhibition of growth at 2.5 µM [3] | other results
O=C(Nc1cccc(C(=O)Nc2cc(C(=O)Nc3ccc4c(S(=O)(=O)O)cccc4c3S(=O)(=O)O)n(C3CC3)c2)c1)Nc1cccc(C(=O)Nc2cc(C(=O)Nc3ccc4c(S(=O)(=O)O)cccc4c3S(=O)(=O)O)n(C3CC3)c2)c1 | < 50% | < 50% | < 50% | –
Cn1cc(NC(=O)Nc2cc(C(=O)Nc3cccc(C(=O)Nc4ccc5c(S(=O)(=O)[O-])cccc5c4S(=O)(=O)[O-])c3)n(C)c2)cc1C(=O)Nc1cccc(C(=O)Nc2ccc3c(S(=O)(=O)[O-])cccc3c2S(=O)(=O)[O-])c1.[Na+].[Na+].[Na+].[Na+] | < 50% | < 50% | < 50% | Activity [4]: >90%; Activity [5]: 87%; Activity [6]: 98%; Activity [7]: 85%; Activity [8]: 80%; Activity [9]: 4%; inhibition [10]: Active
Cn1cc(NC(=O)Nc2cc(C(=O)Nc3cc(C(=O)Nc4ccc5c(S(=O)(=O)[O-])cccc5c4S(=O)(=O)[O-])n(C)c3)n(C)c2)cc1C(=O)Nc1cc(C(=O)Nc2ccc3c(S(=O)(=O)[O-])cccc3c2S(=O)(=O)[O-])n(C)c1.[Na+].[Na+].[Na+].[Na+] | – | – | – | Activity [5]: 44%; Activity [6]: 86%; Activity [7]: 100%; Activity [8]: 100%; Activity [9]: 1%
Cc1ccc(C(=O)Nc2ccc(S(=O)(=O)O)c3cc(S(=O)(=O)O)cc(S(=O)(=O)O)c23)cc1NC(=O)c1cccc(NC(=O)Nc2cccc(C(=O)Nc3cc(C(=O)Nc4ccc(S(=O)(=O)O)c5cc(S(=O)(=O)O)cc(S(=O)(=O)O)c45)ccc3C)c2)c1 [SURAMIN] | – | – | – | Ki [11]: 48 µM
Cc1ccc(C(=O)Nc2ccc3c(S(=O)(=O)O)cccc3c2S(=O)(=O)O)cc1NC(=O)c1cc(NC(=O)Nc2cc(C(=O)Nc3cc(C(=O)Nc4ccc5c(S(=O)(=O)O)cccc5c4S(=O)(=O)O)ccc3C)n(C)c2)cn1C | < 50% | < 50% | < 50% | –
Cn1cc(NC(=O)c2ccc(F)c(NC(=O)Nc3cc(C(=O)Nc4cc(C(=O)Nc5ccc6c(S(=O)(=O)O)cccc6c5S(=O)(=O)O)n(C)c4)ccc3F)c2)cc1C(=O)Nc1ccc2c(S(=O)(=O)O)cccc2c1S(=O)(=O)O | < 50% | < 50% | < 50% | –
Cc1c(NC(=O)c2cccc(NC(=O)Nc3cccc(C(=O)Nc4cc(C(=O)Nc5ccc6c(S(=O)(=O)O)cccc6c5S(=O)(=O)O)n(C)c4C)c3)c2)cc(C(=O)Nc2ccc3c(S(=O)(=O)O)cccc3c2S(=O)(=O)O)n1C | < 50% | < 50% | < 50% | –
Cn1cc(NC(=O)c2cccc(NC(=O)Nc3cccc(C(=O)Nc4cc(C(=O)Nc5ccc6c(S(=O)(=O)O)cccc6c5S(=O)(=O)O)n(C)c4)c3)c2)cc1C(=O)Nc1ccc2c(S(=O)(=O)O)cccc2c1S(=O)(=O)O | < 50% | < 50% | < 50% | –
Cn1cc(NC(=O)c2cc(NC(=O)Nc3cc(C(=O)Nc4cc(C(=O)Nc5ccc6c(S(=O)(=O)O)cccc6c5S(=O)(=O)O)n(C)c4)cc(C(F)(F)F)c3)cc(C(F)(F)F)c2)cc1C(=O)Nc1ccc2c(S(=O)(=O)O)cccc2c1S(=O)(=O)O | < 50% | < 50% | < 50% | –
